Assay results: patent publication US20260137820A1, “TRIFUNCTIONAL COMPOUND AND USE THEREOF” (PEKING UNIVERSITY, priority 2022, published 2026)

Tests used:
Human FAP Protein = molecular target: T1, Human FAP Protein (Homo sapiens, UniProt Q12884); assay: Surface plasmon resonance, multi-cycle mode; assay type: binding; conditions: SPR multi-cycle, 1:1 binding model
T1 construct: His; purchased Novoprotein (China)
T1 sequence (Q12884 1-760): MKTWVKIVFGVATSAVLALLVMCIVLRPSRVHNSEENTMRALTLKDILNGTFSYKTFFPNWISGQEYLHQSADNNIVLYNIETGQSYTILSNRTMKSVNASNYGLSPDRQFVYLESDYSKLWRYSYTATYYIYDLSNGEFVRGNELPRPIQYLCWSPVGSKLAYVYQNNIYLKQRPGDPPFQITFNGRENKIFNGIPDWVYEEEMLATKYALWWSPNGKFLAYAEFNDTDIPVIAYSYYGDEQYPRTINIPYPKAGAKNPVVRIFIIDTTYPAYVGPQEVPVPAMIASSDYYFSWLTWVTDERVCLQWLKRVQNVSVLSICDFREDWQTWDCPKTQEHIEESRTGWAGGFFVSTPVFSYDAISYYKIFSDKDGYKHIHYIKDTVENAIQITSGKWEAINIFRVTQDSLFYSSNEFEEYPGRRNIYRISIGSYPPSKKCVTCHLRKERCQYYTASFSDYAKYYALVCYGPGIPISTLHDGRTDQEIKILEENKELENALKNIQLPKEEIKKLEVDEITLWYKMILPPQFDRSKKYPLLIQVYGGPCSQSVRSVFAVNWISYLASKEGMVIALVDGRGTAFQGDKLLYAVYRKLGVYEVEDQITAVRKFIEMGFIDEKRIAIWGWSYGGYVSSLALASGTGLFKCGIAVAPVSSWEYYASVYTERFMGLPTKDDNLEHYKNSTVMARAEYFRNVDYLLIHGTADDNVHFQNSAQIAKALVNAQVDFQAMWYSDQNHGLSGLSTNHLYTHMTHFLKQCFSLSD
Procedure: According to US Pharmacopeia USP43 IMMUNOLOGICAL TEST METHODS-SURFACE PLASMON RESONANCE<1105> and Chinese Pharmacopoeia 2020, Volume IV, Surface plasmon resonance method, Label-free Immunochemistry (IV), 3429 Immunochemistry, General Rule, a surface plasmon resonance experiment was carried out.
A surface plasma chromatograph from Cytiva was used for measurement. Before protein injection, 400 mM condensing agent 1-ethyl-(3-dimethylaminopropyl)carbodiimide hydrochloride and 100 mM N-hydroxysuccinimide were mixed, and a CM5 sensor chip was activated with this mixture for 420 seconds at a flow rate of 10 μL/min. 50 μg/mL protein was then injected into an Fc2 sample channel at a flow rate of 10 μL/min to achieve a protein immobilization level of about 8000-15000 RU. In the control group, no protein was injected. Subsequently, the unreacted chip was blocked with 1M ethanolamine hydrochloride-NaOH at a flow rate of 10 μL/min for 420 seconds.
Different gradient solutions were injected into channels Fc1-Fc2 at a flow rate of 30 μL/min, followed by a 60-second binding phase and a 90-second dissociation phase, and data were collected.

LNCaP cells = assay: Cell affinity determination, similar method; assay type: cell-based
Procedure: (§1) HT-1080-FAP cells were inoculated into a 24-well plate 24 hours in advance, with the density being about 30% (calculated and estimated), 10^5 cells (countable) per well. 0.5 mL of a complete medium was added. The medium was changed to a serum-free medium. 12 groups of FAPI-CB-01 solutions with a concentration gradient of 0-5000 nM were set up, with internal replicates n=4 for each group. […] 0.75 nM ^68Ga-FAPI-04 was added to each well, followed by incubation at 37° C. for 1 hour. After washing twice with cold PBS and lysis, the radioactivity count was measured.
(§2) Using a similar method, the corresponding targeting PSMA-CB-05, FOLR1-CB-06, SSTR2-CB-02, Nectin4-CB-02, and CXCR4-CB-03 were determined for affinity in LNCaP cells, KB cells, AR42J cells, SW-780 cells, or Daudi cells, respectively. All of these compounds maintained good affinity.

AR42J cells = assay: Cell affinity determination, similar method; assay type: cell-based
Procedure: as §1, §2

HT-1080-FAP tumor [1] = assay: PET/CT imaging in HT-1080-FAP tumor-bearing mouse model; assay type: in vivo; conditions: ^68Ga label, 18.5 MBq via tail vein, p<0.005
Procedure: Mouse model: Nu/Nu mice (SPF grade) were purchased from Beijing Charles River Laboratories (China) and injected subcutaneously with HT-1080-FAP cells to construct a tumor model with high FAP expression.
All PET/CT scans were carried out on Mediso nanoScan® PET 122S small animal PET/CT.
After a certain number of HT-1080-FAP tumor mice were taken and injected via the tail vein with 7.4-18.5 MBq of ^68Ga/^86Y-FAPI-04 (control) and ^68Ga/^86Y-FAPI-CB series molecules at specified time points (Note: the injection of the control and investigation molecules was separated apart by at least five half-lives of the nuclide to ensure that the radioactivity of the previous probe had almost completely decayed and was essentially completely metabolized), imaging was carried out at specified time points. In some examples, the mice were anesthetized and then sacrificed by neck breaking at a certain time point. Organs were dissected and taken for radioactivity measurement.
A ^68Ge-^68Ga generator was eluted with 5 mL of 0.6 M high-purity hydrochloric acid to obtain a Ga-68 hydrochloric acid solution. 1 mL of the Ga-68 solution after elution was taken, and 100 μL of 3 M sodium hydroxide and 130 μL of 3M sodium acetate were added to adjust the acidity to a final pH of 4.0. 12 μg of FAPI-CB-00 compound was added, and the reaction mixture was heated to 70° C. and maintained for 20 min. […]

FAP, DPP-4 and PREP = assay: Binding selectivity to homologous proteins (competitive inhibition of enzyme substrate, IC50); assay type: biochemical; conditions: from IC50 values, pNA release
Procedure: Taking FAP target as an example, homologous proteins thereof include, but are not limited to, DPP-4 and PREP. The structural similarity thereof may lead to a decreased binding selectivity of the modified precursor molecules for the homologous proteins, resulting in an increased uptake in non-target organs.
The binding selectivity for homologous proteins was determined by a competitive inhibition experiment on the substrate of the enzymes, and the binding/inhibition selectivity thereof is indirectly evaluated by the median inhibitory concentration (IC50) values obtained.
By reference to the method described in Extended Structure-Activity Relationship and Pharmacokinetic Investigation of (4-Quinolinoyl)glycyl-2-cyanopyrrolidine Inhibitors of Fibroblast Activation Protein (FAP). Journal of Medicinal Chemistry 57, 3053-3074 (2014), published by Jansen et al., the initial rate of p-nitroaniline (pNA) released from the substrate (absorption at 405 nm) was measured by using a microplate reader (PerkinElmer, Victor™ X5) at 37° C. in a final volume of 200 μL to determine the kinetic properties of the enzyme activity. […]
The determination method for IC50 on FAP is as follows: the substrate Z-Gly-Pro-p-nitroanilide (50 μM, Cat #G-58468, HEOWNS) was used to measure FAP activity at pH 7.4. […] The mixture was then incubated at 37° C. for 6 hours, and the release of pNA was then measured. […]

HT-1080-FAP tumor [2] = assay: ^177Lu radionuclide therapy experiment in tumor mouse model; assay type: in vivo; conditions: ^177Lu-labeled, treatment on day 0 and day 4, same or higher dose; vs normal saline or FAPI-04 control group
Procedure: (§3) When the average tumor size reached about 100 mm^3, HT-1080-FAP tumor mice in the same batch were randomly divided into five groups, with n=7 or 8 in each group. Two rounds of treatment were then carried out on day 0 and day 4. […] The tumor size and weight of the mice were monitored every 2 or 3 days.

HT-1080-FAP tumor [3] = assay: ^225Ac radionuclide therapy experiment in tumor mouse model; assay type: in vivo; conditions: ^225Ac-labeled, treatment on day 0 and day 4, same or higher dose; vs normal saline or FAPI-04 control group
Procedure: as §3

SMILES: N#C[C@@H]1CC(F)(F)CN1C(=O)CNC(=O)c1ccnc2ccc(OCCCN3CCN(C(=O)CN4CCN(CC(=O)O)CCN(CC(=O)O)CCN(CC(=O)O)CC4)CC3)cc12 [FAPI-04, reference compound]
- Rmax (maximum theoretical analyte binding capacity) (Human FAP Protein): 21.7 RU
- ka (Human FAP Protein): 845000 M⁻¹ s⁻¹
- kd (Human FAP Protein): 0.000311 s⁻¹

SMILES: O=C(O)CC[C@H](NC(=O)N[C@@H](CCCCNC(=O)[C@H](Cc1ccc2ccccc2c1)NC(=O)[C@H]1CC[C@H](CNC(=O)[C@H](CCCCNC(=O)CCc2cccc(S(=O)(=O)F)c2)NC(=O)CN2CCN(CC(=O)O)CCN(CC(=O)O)CCN(CC(=O)O)CC2)CC1)C(=O)O)C(=O)O [PSMA-CB-05]
- affinity (LNCaP cells): good affinity

SMILES: C[C@@H](O)[C@H](NC(=O)[C@@H]1CSSC[C@H](NC(=O)[C@@H](Cc2ccccc2)NC(=O)CN2CCN(CC(=O)O)CCN(CC(=O)O)CCN(CC(=O)O)CC2)C(=O)N[C@@H](Cc2ccc(OS(=O)(=O)F)cc2)C(=O)N[C@H](Cc2c[nH]c3ccccc23)C(=O)N[C@@H](CCCCN)C(=O)N[C@@H]([C@@H](C)O)C(=O)N1)C(=O)O [SSTR2-CB-02]
- affinity (AR42J cells): good affinity

SMILES: N#C[C@@H]1CC(F)(F)CN1C(=O)CNC(=O)c1ccnc2ccc(OCCCN3CCN(C(=O)[C@H](CCCCNC(=O)c4cccc(OS(=O)(=O)F)c4)NC(=O)CN4CCN(CC(=O)O)CCN(CC(=O)O)CCN(CC(=O)O)CC4)CC3)cc12 [FAPI-CB-02]
- improvement of maximum standard tumor uptake value (SUVmax) compared with FAPI-04 (HT-1080-FAP tumor [1]): ~4 times
- selectivity to FAP protein over homologous proteins DPP-4 and PREP (FAP, DPP-4 and PREP): high selectivity
- tumor inhibition effect (HT-1080-FAP tumor [2]): significantly better tumor inhibition effect
- tumor inhibition effect (HT-1080-FAP tumor [3]): significantly better tumor inhibition effect
